Test results from patent publication US12077503B2, “Substituted cyclic amides and their use as herbicides” (FMC CORPORATION, priority 2015, dated 2024).

Tests used:
Format in all cases: in vivo
[1] = system: barnyardgrass (Echinochloa crus-galli); assay: Test A preemergence; conditions: for Plant response rating, Barnyardgrass: preemergence
Outline: (§1)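 Seeded soil received test chemicals as a preemergence directed spray, and seedlings at one to two leaves, 2–10 cm tall, received them postemergence, in a non-phytotoxic, surfactant-containing solvent mixture. Pots were held in a greenhouse for approximately 10 d, then rated for injury from 0, no effect, to 100, complete control.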

corn (Zea mays) [2] = assay: Test A preemergence; conditions: for Plant response rating, Corn: preemergence
Outline: as §1

[3] = system: crabgrass, large (Digitaria sanguinalis); assay: Test A preemergence; conditions: for Plant response rating, Crabgrass, Large: preemergence
Outline: as §1

[4] = system: giant foxtail (Setaria faberii); assay: Test A preemergence; conditions: for Plant response rating, Foxtail, Giant: preemergence
Outline: as §1

[5] = system: morningglory (Ipomoea spp.); assay: Test A preemergence; conditions: for Plant response rating, Morningglory: preemergence
Outline: as §1

[6] = system: pigweed (Amaranthus retroflexus); assay: Test A preemergence; conditions: for Plant response rating, Pigweed: preemergence
[7] = system: velvetleaf (Abutilon theophrasti); assay: Test A preemergence; conditions: for Plant response rating, Velvetleaf: preemergence
Outline: as §1

[8] = system: wheat (Triticum aestivum); assay: Test A preemergence; conditions: for Plant response rating, Wheat: preemergence
Outline: as §1

[9] = system: barnyardgrass (Echinochloa crus-galli); assay: Test A postemergence
Outline: as §1

corn (Zea mays) [10] = assay: Test A postemergence
Outline: as §1

[11] = system: crabgrass, large (Digitaria sanguinalis); assay: Test A postemergence
Outline: as §1

[12] = system: giant foxtail (Setaria faberii); assay: Test A postemergence
Outline: as §1

[13] = system: morningglory (Ipomoea spp.); assay: Test A postemergence
Outline: as §1

[14] = system: pigweed (Amaranthus retroflexus); assay: Test A postemergence
Outline: as §1

[15] = system: velvetleaf (Abutilon theophrasti); assay: Test A postemergence
Outline: as §1

[16] = system: wheat (Triticum aestivum); assay: Test A postemergence
Outline: as §1

[17] = system: barnyardgrass (Echinochloa crus-galli); assay: Test B flooded paddy test; conditions: Flood, 250 g ai/ha; 0 to 100 scale where 0 is no effect and 100 is complete control; 13 to 15 d
Outline: (§2)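 Evaluation by eye, against controls, occurred 13–15 d post-treatment in a greenhouse, using a 0 (no effect) to 100 (complete control) scale. Application was into the paddy water, 3 cm deep over the soil, on 2-leaf plants.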

[18] = system: ducksalad (Heteranthera limosa); assay: Test B flooded paddy test; conditions: Flood, 250 g ai/ha; 0 to 100 scale where 0 is no effect and 100 is complete control; 13 to 15 d
Outline: as §2

rice (Oryra sativa) = assay: Test B flooded paddy test; conditions: Flood, 250 g ai/ha; 0 to 100 scale where 0 is no effect and 100 is complete control; 13 to 15 d
Outline: as §2

[19] = system: sedge, umbrella (small-flower umbrella sedge, Cyperus difformis); assay: Test B flooded paddy test; conditions: Flood, 250 g ai/ha
Outline: as §2

[20] = 125 g ai/ha, visual rating after approx. 10 d, 0 to 100 scale where 0 is no effect and 100 is complete control
[21] = 500 g ai/ha, 0 to 100 scale, 0 = no effect, 100 = complete control
[22] = 125 g ai/ha, postemergence, visual injury after approximately 10 d, 0 to 100 scale (0 no effect, 100 complete control)
[23] = 500 g ai/ha, postemergence, visual injury, 0 to 100 scale (0 no effect, 100 complete control), approx. 10 d
[24] = 125 g ai/ha, 0 to 100 scale (0 no effect, 100 complete control)
[25] = Preemergence, 500 g ai/ha, 0 is no effect, 100 is complete control
[26] = 500 g ai/ha, postemergence, 0 to 100 scale, 0 no effect, 100 complete control
[27] = Postemergence, 125 g ai/ha, visual injury, 0 to 100 scale (0 no effect, 100 complete control), approx. 10 d

O=C1NCC(c2cccc(O)c2)C1C(=O)Nc1ccccc1C(F)(F)F (racemic) [Compound 716]
0: Plant response rating, Barnyardgrass [1, 20] | Plant response rating, Barnyardgrass [1, 21] | Plant response rating, Corn (corn (Zea mays) [2]; [20]) | Plant response rating, Corn (corn (Zea mays) [2]; [21]) | Plant response rating, Crabgrass, Large [3, 20] | Plant response rating, Crabgrass, Large [3, 21] | Plant response rating, Foxtail, Giant [4, 20] | Plant response rating, Foxtail, Giant [4, 21] | Plant response rating, Morningglory [5, 20] | Plant response rating, Morningglory [5, 21] | Plant response rating, Pigweed [6, 20] | Plant response rating, Pigweed [6, 21] | Plant response rating, Velvetleaf [7, 20] | Plant response rating, Velvetleaf [7, 21] | Plant response rating, Wheat [8, 20] | Plant response rating, Wheat [8, 21] | Plant response rating, Barnyardgrass [9, 22] | Plant response rating, Barnyardgrass [9, 23] | Plant response rating, Corn (corn (Zea mays) [10]; [22]) | Plant response rating, Corn (corn (Zea mays) [10]; [23]) | Plant response rating, Crabgrass, Large [11, 22] | Plant response rating, Crabgrass, Large [11, 23] | Plant response rating, Foxtail, Giant [12, 22] | Plant response rating, Foxtail, Giant [12, 23] | Plant response rating, Morningglory [13, 22] | Plant response rating, Morningglory [13, 23] | Plant response rating, Pigweed [14, 22] | Plant response rating, Pigweed [14, 23] | Plant response rating, Velvetleaf [15, 22] | Plant response rating, Velvetleaf [15, 23] | Plant response rating, Wheat [16, 22] | Plant response rating, Wheat [16, 23] | Plant response rating, Barnyardgrass [17] | Plant response rating, Ducksalad [18] | Plant response rating, Rice (rice (Oryra sativa)) | Sedge, Umbrella plant response rating ([19]; scale of 0 to 100 where 0 is no effect and 100 is complete control)

Nc1cccc(C2CNC(=O)C2C(=O)Nc2cccc(F)c2F)c1 (stereo not drawn) [Compound 353]
0: Plant response rating, Barnyardgrass [1, 24] | Barnyardgrass plant response rating (0 to 100 scale) [1, 25] | Plant response rating, Corn (corn (Zea mays) [2]; [24]) | Corn plant response rating (0 to 100 scale) (corn (Zea mays) [2]; [25]) | Plant response rating, Crabgrass, Large [3, 24] | Crabgrass, Large plant response rating (0 to 100 scale) [3, 25] | Plant response rating, Foxtail, Giant [4, 24] | Foxtail, Giant plant response rating (0 to 100 scale) [4, 25] | Plant response rating, Morningglory [5, 24] | Morningglory plant response rating (0 to 100 scale) [5, 25] | Plant response rating, Pigweed [6, 24] | Pigweed plant response rating (0 to 100 scale) [6, 25] | Plant response rating, Velvetleaf [7, 24] | Velvetleaf plant response rating (0 to 100 scale) [7, 25] | Plant response rating, Wheat [8, 24] | Wheat plant response rating (0 to 100 scale) [8, 25] | Plant response rating, Barnyardgrass [9, 26] | Plant response rating, Barnyardgrass [9, 27] | Plant response rating, Corn (corn (Zea mays) [10]; [26]) | Plant response rating, Corn (corn (Zea mays) [10]; [27]) | Plant response rating, Crabgrass, Large [11, 26] | Plant response rating, Crabgrass, Large [11, 27] | Plant response rating, Foxtail, Giant [12, 26] | Plant response rating, Foxtail, Giant [12, 27] | Plant response rating, Morningglory [13, 26] | Plant response rating, Morningglory [13, 27] | Plant response rating, Pigweed [14, 26] | Plant response rating, Pigweed [14, 27] | Plant response rating, Velvetleaf [15, 26] | Plant response rating, Velvetleaf [15, 27] | Plant response rating, Wheat [16, 26] | Plant response rating, Wheat [16, 27] | Plant response rating, Barnyardgrass [17] | Plant response rating, Ducksalad [18] | Plant response rating, Rice (rice (Oryra sativa)) | Plant response rating, Sedge, Umbrella ([19]; 0 to 100 scale where 0 is no effect and 100 is complete control, 13 to 15 d)
